Measurements taken from paper PMC6560211, “ApoAI-derived peptide increases glucose tolerance and prevents formation of atherosclerosis in mice” (Diabetologia, 2019).
No end group written: not given here.

Tested on: Lepr db (db/db) mice
Test: GTT in db/db mice
Assay type: in vivo, mouse
Procedure: Male C57BL/6NTac mice (Taconic, Ejby, Denmark) at 8–9 weeks of age were acclimatised for 1 week on a normal chow diet, then changed to a high-fat diet for 2 weeks (diet-induced obesity; DIO), followed by GTT as indicated. Male Lepr^db (db/db) mice on a BKS background (Taconic) at 5 weeks of age were maintained on a normal chow diet and GTTs were performed at 5.5 and 14 weeks of age as indicated. Blood glucose levels were measured in fresh blood (C57: OneTouch Ultra2, Lifescan, Milpitas, CA, USA; db/db: GlucoSmart Swing, MSP bodmann, Bobingen, Germany) and insulin levels were assayed in serum using ELISA (Mercodia) at the times indicated in ESM Fig. 2. See ESM Methods for more details.
Fig. 4 Acute treatment with RG54 improves glucose tolerance during GTTs in three models of type 2 diabetes. Male C57Bl/6 mice fed a high-fat diet for 2 weeks (a–d) or db/db mice at 5.5 (e–h) or 14 (i–l) weeks old were fasted overnight, then treated with a single i.p. injection of NaCl (negative control, 200 μl; C57, n=12; db/db 5.5 weeks, n=6; db/db 14 weeks, n=6), liraglutide (0.1 mg/kg; C57, n=11; db/db 5.5 weeks, n=6; db/db 14 weeks, n=6), ApoA-I (14 mg/kg; C57, n=12; db/db 5.5 weeks, n=6; db/db 14 weeks, n=6) or RG54 (12 mg/kg; C57, n=12; db/db 5.5 weeks, n=6; db/db 14 weeks, n=5). After a further 3 h, mice received an i.p. glucose load (40 mg/mouse for C57; 50 mg/mouse for db/db) followed by blood and plasma collection at the indicated times, and blood glucose (a,e,i) and plasma insulin (b,f,j) concentrations were determined. Total AUC was calculated (mmol/l × min for glucose, pmol/l × min for insulin) and then normalised to the average value of the relevant NaCl control group to give relative AUC (% control) for glucose (c,g,k) and insulin (d,h,l). Values are means ± SEM. *p≤0.05, **p≤0.01, ***p≤0.001 vs NaCl control […]
We next used type 2 diabetes models with a more advanced phenotype: db/db mice at 5.5 and 14 weeks of age.
At 14 weeks of age, mice were markedly obese with a mean ± SEM body weight of 55.3 ± 0.6 g. […] One mouse was excluded from RG54 treatment group because of very high residual insulin secretion prior to the experiment.
Male C57BL/6NTac mice were purchased from Taconic (Ejby, Denmark) at 8-9 weeks of age, acclimatised for one week on normal chow diet, then changed to a High-Fat Diet (HFD; Research Diets D12492, 60% fat content) for 2 weeks, followed by glucose tolerance testing (GTT) with timings as indicated (ESM Figure 2). Male Leprdb mice (db/db) on BKS background purchased from Taconic (BKS.Cg-m+/+Leprdb/BomTac, Ejby, Denmark) at 5 weeks of age were maintained on normal chow diet and GTTs were performed at 5.5 and 14 weeks of age with timings as indicated (ESM Figure 2). For the GTTs, mice fasted overnight (9 h) were injected with the appropriate treatment, and after an additional 3 h given ip glucose (C57: 40 mg/mouse; db/db: 50 mg/mouse) followed by collection of serum samples at the indicated times. Blood glucose levels were measured in fresh blood (C57: OnetouchUltra2, Lifescan; db/db: GlucoSmart Swing, MSP bodmann) and insulin levels were assayed in serum using ELISA (Mercodia). db/db mice were independently randomized to treatments groups for GTT at each time point as no carry over was expected between experiments due to the acute nature of the treatment effects. Primary outcomes were blood glucose and insulin measurements during the GTT. C57BL/6NTac mice were euthanized immediately after each experiment whereas db/db were euthanized immediately after the GTT at 14 weeks of age. […]
and reproducible clinical symptoms of diabetes than females in these models [5; 6] thus ensuring the reproducibility of clinical symptoms between animals within the study. […]

[1] = db/db 5.5 weeks, 3 h treatment, i.p.

Q: For “Ac-AEYHAKATEHLSTLSEKAKPALEDLRQGLLPVLESFKVSFLSALEEYTKKLNTQ [RG54]”, which fasting glucose levels [1] is on record?
A: significantly lowered

Q: What about the fasting insulin secretion [1] of the same substance?
A: no significant changes

Q: What about the “insulin sensitivity as measured by QUICKI” value [1] of the same substance?
A: no concomitant change

Q: And the “glucose AUC” value (db/db 14 weeks, RG54 12 mg/kg i.p., n=5, vs NaCl)?
A: no significant change
